The values below come from PMC9592910, “Tissue distribution and integrated pharmacokinetic properties of major effective constituents of oral Gegen-Qinlian decoction in mice” (Frontiers in Pharmacology, 2022).

Series [1] is described as follows: Pharmacokinetics/tissue distribution of GQD constituents in the livers of mice after oral GQD. Conditions: liver, mice; for half-life / Cmax / MRT / Tmax: both, Kunming, mouse, liver (homogenate); for half-life: po, read-out: T1/2 (converted); for half-life / T1/2: oral GQD extract […]; for Cmax / MRT / Tmax: oral GQD extract 6.1 g/kg; for Tmax: read-out: Tmax. Format: in vivo, Kunming mice. On the procedure:
(§1) The liver and the colon homogenates were prepared with 10 times (V: W) the volume of ascorbic acid solution (200 μg/ml). Then the homogenates were pretreated as plasma to obtain the tissue samples for LC-MS/MS analysis. Fifty-four Kunming mice were randomly divided into nine groups according to body weight and gender (3 male and three female in each group). […] Then the C-T curves of the constituents in the plasma and the tissue homogenates were respectively drawn and their pharmacokinetic parameters were respectively calculated. […] It should be noted that the pharmacokinetic parameters of a GQD constituent was calculated based on its average concentration in six mice at each time point. The results were expressed as mean ± SD.

Series [2] can be described thus: Pharmacokinetics of GQD constituents in the portal vein of mice after oral GQD. Format: in vivo, Kunming mice. To be noted: both, Kunming, mouse, portal vein plasma, portal vein plasma, mice; for Tmax: po, oral GQD extract […], read-out: Tmax; for Cmax / MRT / AUC(0-t) / half-life: oral GQD extract 6.1 g/kg; for AUC(0-t): read-out: AUC0–24 h; for half-life: read-out: T1/2 (converted). As for the experimental part:
(§2) Fifty-four Kunming mice were randomly divided into nine groups according to body weight and gender (3 male and three female in each group). Each group was orally administered with water solution (0.2 ml/10 g body weight) of the GQD extract powder at the dosage of 6.1 g/kg body weight. The dosage of GQD extract powder equals to 18 g/kg herbal pieces of GQD, which is equivalent to its clinical dosage. At each designed time point (0.08, 0.25, 0.5, 1, 2, 4, 8, 12, and 24 h) after oral administration, six mice were anesthetized with ether, and blood was collected from the portal vein (about 0.2 ml, aspirated in a 1 ml heparinized syringe) and then the systemic circulation (about 0.2 ml, collected in heparinized tubes after removal of the eyeball) of the mice to prepare plasma samples, and the livers and the colons were removed to prepare respective homogenate. After pretreatment, the concentrations of 19 major constituents of GQD in each sample were measured by the validated LC-MS/MS method (see “2.3”). Then the C-T curves of the constituents in the plasma and the tissue homogenates were respectively drawn and their pharmacokinetic parameters were respectively calculated.
(§3) It should be noted that the pharmacokinetic parameters of a GQD constituent was calculated based on its average concentration in six mice at each time point. The results were expressed as mean ± SD.

For series [3], the system named is dextran sodium sulfate-induced ulcerative colitis model mice. The arrangement: method as in Dong et al., 2022. To be noted: oral 40 mg/kg for 7 days, DSS-induced ulcerative colitis model mice; ref Dong et al., 2022; cited from earlier work.
On the set-up of series [4]: method as in Zhai et al., 2020. Conditions: at 10 μM; ref Zhai et al., 2020; cited from earlier work.
Series [5] can be described thus: Pharmacokinetics of GQD constituents in the systemic circulation of mice after oral GQD. The series is classed as in vivo, Kunming mice. Conditions: systemic circulation plasma, systemic circulation plasma, mice; for half-life / Tmax / Cmax / MRT / AUC(0-t): both, Kunming, mouse; for half-life / Tmax: po; for half-life: read-out: T1/2 (converted); for Tmax: read-out: Tmax; for Cmax / MRT / AUC(0-t): oral GQD 6.1 g/kg; for AUC(0-t): read-out: AUC0–24 h. On the procedure: as §2, §3

The nature of series [6]: Pharmacokinetics/tissue distribution of GQD constituents in the colons of mice after oral GQD. Format: in vivo, Kunming mice. To be noted: colon, mice; for half-life / Cmax / MRT / Tmax: both, Kunming, mouse, colon (homogenate); for half-life: po, read-out: T1/2 (converted); for half-life / T1/2: oral GQD extract […]; for Cmax / MRT / Tmax: oral GQD extract 6.1 g/kg; for Tmax: read-out: Tmax. As for the experimental part: as §1

In series [7] the test system is rats with irritable bowel syndrome. The arrangement: method as in Wang et al., 2021. To be noted: oral 6–24 mg/kg, ref Wang et al., 2021; cited from earlier work.
The subject of series [8] is dextran sodium sulfate-induced colitis. Set-up: method as in Jeon et al., 2020. Conditions: oral 10 or 50 mg/kg; ref Jeon et al., 2020; cited from earlier work.

Marks after values point to notes of the source that are not given here.

In general, Cmax refers to the peak of the concentration-time curve. What is called MRT is a mean duration of stay, worked out from the concentration-time curve. The Tmax is the time at which the peak concentration occurs.

For the compound `COc1ccc2cc3[n+](cc2c1OC)CCc1cc2c(cc1-3)OCO2` [Berberine, berberine], in series [1], the half-life is about 10 h, the concentration peaked (Cmax) at 427 ng/g, the MRT came out at 8.3 h and the Tmax is 4 h. For the same compound, the T1/2 in series [1] is 10.1# h. Further, in series [2], the Tmax turned out to be 4 h, the Cmax amounted to 191 ng/mL, the MRT was found to be 5.5 h and the AUC(0-t) was 1420 ng·h/mL. Besides, the half-life in series [2] was 8 h. For the same compound, in series [3], the “effect on intestinal mucosal barrier function and inflammatory reaction” value is on record as “significantly improved intestinal mucosal barrier function”. In series [4], the anti-inflammatory effect result is listed as “significant anti-inflammatory effect”. In series [5] (oral GQD […]), the half-life is about 6 h, the Tmax came out at 1 h and the T1/2 is listed as 5.3 h. For the same compound, in series [5], the Cmax amounted to 85.4 ng/mL, the MRT was 5.4 h and the AUC(0-t) came to 419 ng·h/mL. For the same compound, in series [6], the half-life was 3.5 h, the Cmax was 6230 ng/g, the MRT came out at 6 h and the Tmax came out at 4 h.

As to `O=c1c(-c2ccc(O)cc2)coc2c([C@@H]3O[C@H](CO)[C@@H](O)[C@H](O)[C@H]3O)c(O)ccc12` [Puerarin, puerarin], in series [1], the half-life is 3 to 4 h, the Cmax amounted to 2870 ng/g, the MRT turned out to be 3.8 h and the Tmax turned out to be 0.5 h. In series [1], this compound had a T1/2 of 4.0 h. Also, in series [2], the Tmax lay in the range of 0.25 to 0.5 h, the peak level (Cmax) was 1990 ng/mL, the MRT stood at 3.2 h and the AUC(0-t) turned out to be 6710 ng·h/mL. In addition, the half-life in series [2] is 2.9 h. Further, the “effect on irritable bowel syndrome symptoms” value in series [7] is given as “improved symptoms of rats with irritable bowel syndrome”. In series [5] (oral GQD […]), the half-life is 3.4 h and the Tmax was 0.25 to 0.5 h. Further, in series [5], the highest level (Cmax) was 1580 ng/mL, the MRT is 3.3 h and the AUC(0-t) is 5230 ng·h/mL. In series [6], the half-life is 1 to 4 h, the Cmax was 61600 ng/g, the MRT came out at 5.9 h and the Tmax turned out to be 4 h. Also, in series [6], the T1/2 came to 1.3 h. The “effect on dextran sodium sulfate-induced colitis” value in series [8] is reported as “alleviated dextran sodium sulfate-induced colitis”.

For the compound `COc1c(O)cc(O)c2c(=O)cc(-c3ccccc3)oc12` [Wogonin, wogonin], in series [1], the half-life was 2 to 3 h, the Cmax is 839 ng/g, the MRT turned out to be 5 h and the Tmax was 4 h. The same compound returned a T1/2 in series [1] of 2.6 h. In series [2], the Tmax was found to be 2 h, the Cmax was determined as 1220 ng/mL, the MRT stood at 3.3 h and the AUC(0-t) was determined as 4510 ng·h/mL. In series [2], the half-life is 1 h. In addition, in series [5] (oral GQD […]), the half-life was 1.5 h and the Tmax stood at 2 h. Also, in series [5], the concentration peaked (Cmax) at 64.7 ng/mL, the MRT amounted to 3.6 h and the AUC(0-t) worked out at 300 ng·h/mL. Moreover, in series [6], the half-life was 2 to 3 h, the concentration peaked (Cmax) at 535 ng/g, the MRT came out at 6.1 h and the Tmax amounted to 4 h. In series [6], this compound registered a T1/2 of 3.2 h.
